According to ChEMBL document CHEMBL1201862, “PubChem BioAssay data set” (2004):
The source made the active and inactive calls.

Assays:
[1] = molecular target: Peroxisome proliferator-activated receptor gamma/Nuclear receptor coactivator 1 (Homo sapiens, UniProt P37231); test: (§1) TR-FRET dose response biochemical High Throughput Screening assay for agonists of the steroid receptor coactivator 1 (SRC-1) recruitment by the peroxisome proliferator-activated receptor gamma (PPAR gamma): non-selective agonists. [Related pubchem assays (depositor defined):AID1300, AID1808, AID504735, AID631]; type: protein assay
[2] = molecular target: Peroxisome proliferator-activated receptor gamma/Nuclear receptor coactivator 3 (Homo sapiens, UniProt P37231); test: as §1, with “3 (SRC-3)” for “1 (SRC-1)”, “assays: 1301 (Confirmation screen.), 1048 (Primary screen.)]” for “assays (depositor defined):AID1300, AID1808, AID504735, AID631]”; type: functional
[3] = molecular target: Peroxisome proliferator-activated receptor gamma/Nuclear receptor coactivator 2 (Homo sapiens, UniProt P37231); test: TR-FRET dose response biochemical High Throughput Screening assay for agonists of the steroid receptor coactivator 2 (SRC-2) recruitment by the peroxisome proliferator-activated receptor gamma (PPAR gamma): non-selective agonists. [Related pubchem assays: 1297, 1032 ]; type: functional
[4] = molecular target: T1, Coagulation factor XII (Homo sapiens, UniProt P00748); test: Factor XIIa Dose Response Confirmation from Single Well HTS. [Related pubchem assays (depositor defined):AID701]; type: functional
T1 sequence (P00748 whole entry): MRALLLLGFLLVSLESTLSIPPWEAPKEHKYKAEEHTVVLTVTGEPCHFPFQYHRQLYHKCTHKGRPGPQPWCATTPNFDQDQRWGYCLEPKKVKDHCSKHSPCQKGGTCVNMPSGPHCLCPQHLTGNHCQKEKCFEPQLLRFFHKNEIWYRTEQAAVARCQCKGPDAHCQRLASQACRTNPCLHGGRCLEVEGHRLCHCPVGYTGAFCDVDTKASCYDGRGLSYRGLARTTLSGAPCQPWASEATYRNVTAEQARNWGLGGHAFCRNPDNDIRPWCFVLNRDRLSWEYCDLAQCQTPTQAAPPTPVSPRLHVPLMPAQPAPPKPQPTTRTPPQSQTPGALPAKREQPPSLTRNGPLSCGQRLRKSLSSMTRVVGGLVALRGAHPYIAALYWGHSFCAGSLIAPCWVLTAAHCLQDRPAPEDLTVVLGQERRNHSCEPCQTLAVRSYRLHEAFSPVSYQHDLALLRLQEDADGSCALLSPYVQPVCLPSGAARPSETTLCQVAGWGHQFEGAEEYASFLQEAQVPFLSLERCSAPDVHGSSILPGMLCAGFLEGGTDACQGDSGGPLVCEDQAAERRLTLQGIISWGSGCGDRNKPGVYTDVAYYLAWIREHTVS

[5] = molecular target: Intestinal-type alkaline phosphatase (Homo sapiens, UniProt P09923); test: activation of human intestinal alkaline phosphatase – biochemical, dose response (AID 488873); type: functional
[6] = molecular target: Intestinal-type alkaline phosphatase (Mus musculus, UniProt P24822); test: mouse intestinal alkaline phosphatase activators, dose response, biochemical, luminescence, uHTS hits (AID 488783); type: functional
[7] = molecular target: T2, Alkaline phosphatase, tissue-nonspecific isozyme (Homo sapiens, UniProt P05186); test: activation of tissue-nonspecific alkaline phosphatase – biochemical, TNAP isozyme, mouse IAP uHTS hits, selectivity assay for mouse IAP activator project, dose response (AID 488880); type: functional
T2 sequence (P05186 whole entry): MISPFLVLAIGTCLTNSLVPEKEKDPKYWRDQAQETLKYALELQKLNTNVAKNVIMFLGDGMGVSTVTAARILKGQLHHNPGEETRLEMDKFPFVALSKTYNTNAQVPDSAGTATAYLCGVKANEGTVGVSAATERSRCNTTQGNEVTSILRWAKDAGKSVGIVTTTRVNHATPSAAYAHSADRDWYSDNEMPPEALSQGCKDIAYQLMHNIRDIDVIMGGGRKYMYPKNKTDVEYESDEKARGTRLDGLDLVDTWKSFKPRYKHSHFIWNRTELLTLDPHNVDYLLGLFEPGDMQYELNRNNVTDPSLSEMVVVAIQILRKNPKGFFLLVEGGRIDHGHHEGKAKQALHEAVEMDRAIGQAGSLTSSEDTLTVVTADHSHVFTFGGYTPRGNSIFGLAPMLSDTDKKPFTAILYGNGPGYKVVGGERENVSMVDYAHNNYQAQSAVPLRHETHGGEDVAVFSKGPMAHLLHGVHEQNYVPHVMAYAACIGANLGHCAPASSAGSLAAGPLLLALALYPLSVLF

[8] = molecular target: T3, Delta-type opioid receptor (Homo sapiens, UniProt P41143); test: HTS Image-Based Screen for Antagonists of the DOR Receptor. [Related pubchem assays (depositor defined):AID1777, AID1785, AID1786, AID2133]; type: functional
[9] = luciferase reporter signal suppression in cells – H4 neuroglioma cells, luminescence, dose response (AID 1990); type: functional, cell-based
[10] = molecular target: Mu-type opioid receptor (Homo sapiens, UniProt P35372); test: HTS Image-Based Screen for Agonists of the MOR Receptor. [Related pubchem assays (depositor defined):AID1777, AID1785, AID1786, AID2133]; type: functional;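 also: imaging of beta-arrestin GFP recruitment into spots after receptor activation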
[11] = molecular target: T3, Delta-type opioid receptor; test: HTS Image-Based Screen for Agonists of the DOR Receptor. [Related pubchem assays (depositor defined):AID1777, AID1786, AID2133]; type: functional
[12] = tested on: BJ; test: BJ-TERT fibroblast viability loss – cell-based, RAS-independent, luminescence, dose response (AID 1933); type: functional; conditions: Homo sapiens
[13] = cells; type: functional, cell-based
[14] = Luminescence Cell-Based Dose Response HTS to Identify Inhibitors of 5'UTR Stem-Loop Driven Prion Protein mRNA Translation in H4 Neuroglioblastoma Cells. [Related pubchem assays: 1827 (Project Summary), 1813 (Primary HTS)]; type: functional
[15] = alpha-synuclein stem-loop luciferase translation blockers – H4 neuroglioma cells, luminescence, confirmation (AID 1988); type: functional, cell-based
[16] = tested on: BJ; test: cells; type: functional, cell-based; conditions: Homo sapiens
[17] = Luminescence-based dose response cell-based high throughput screening assay for cytotoxic compounds using the IEC-6 intestinal epithelial cell line. [Related pubchem assays: 1858 (Summary AID.), 1825 (Counterscreen.), 1907 (Confirmation screen.)]; type: functional
[18] = cells; type: functional, cell-based; remark: listed apart in the source
[19] = molecular target: T4, Kappa-type opioid receptor (Homo sapiens, UniProt P41145); type: functional
[20] = molecular target: Beta-galactosidase (Escherichia coli, UniProt Q8VNN2); type: functional
[21] = tested on: BJ; test: BJ-TERT-LT-ST fibroblast viability loss – cell-based, RAS-independent, luminescence, dose response (AID 1935); type: functional; conditions: Homo sapiens;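 also: BJ fibroblasts immortalized with TERT plus LT and ST oncogenes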
[22] = molecular target: T4, Kappa-type opioid receptor; type: functional; remark: listed apart in the source
[23] = DRD fibroblast viability loss – cell-based, non-viral oncogenic, luminescence, dose response (AID 1934); type: functional; conditions: Homo sapiens
[24] = molecular target: T5, Caspase-3 (Homo sapiens, UniProt P42574); type: functional;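 also: Dose-response selectivity test against caspase-3 for candidate inhibitors of sentrin-specific proteases (SENPs)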
T5 sequence (P42574 whole entry): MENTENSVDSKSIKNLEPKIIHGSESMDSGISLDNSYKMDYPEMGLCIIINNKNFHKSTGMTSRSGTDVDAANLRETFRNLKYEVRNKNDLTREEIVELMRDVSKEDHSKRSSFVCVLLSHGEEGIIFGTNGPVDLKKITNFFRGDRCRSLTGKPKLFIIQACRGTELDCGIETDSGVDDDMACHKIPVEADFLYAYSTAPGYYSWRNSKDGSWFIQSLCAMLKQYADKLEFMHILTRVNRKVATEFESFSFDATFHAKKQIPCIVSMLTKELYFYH

[25] = molecular target: T6, Sentrin-specific protease 7 (Homo sapiens, UniProt Q9BQF6); type: functional;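 also: Luminescence-based dose-response confirmation of ultra-high-throughput screening hits, measuring inhibition of SENP7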
T6 sequence (Q9BQF6 whole entry): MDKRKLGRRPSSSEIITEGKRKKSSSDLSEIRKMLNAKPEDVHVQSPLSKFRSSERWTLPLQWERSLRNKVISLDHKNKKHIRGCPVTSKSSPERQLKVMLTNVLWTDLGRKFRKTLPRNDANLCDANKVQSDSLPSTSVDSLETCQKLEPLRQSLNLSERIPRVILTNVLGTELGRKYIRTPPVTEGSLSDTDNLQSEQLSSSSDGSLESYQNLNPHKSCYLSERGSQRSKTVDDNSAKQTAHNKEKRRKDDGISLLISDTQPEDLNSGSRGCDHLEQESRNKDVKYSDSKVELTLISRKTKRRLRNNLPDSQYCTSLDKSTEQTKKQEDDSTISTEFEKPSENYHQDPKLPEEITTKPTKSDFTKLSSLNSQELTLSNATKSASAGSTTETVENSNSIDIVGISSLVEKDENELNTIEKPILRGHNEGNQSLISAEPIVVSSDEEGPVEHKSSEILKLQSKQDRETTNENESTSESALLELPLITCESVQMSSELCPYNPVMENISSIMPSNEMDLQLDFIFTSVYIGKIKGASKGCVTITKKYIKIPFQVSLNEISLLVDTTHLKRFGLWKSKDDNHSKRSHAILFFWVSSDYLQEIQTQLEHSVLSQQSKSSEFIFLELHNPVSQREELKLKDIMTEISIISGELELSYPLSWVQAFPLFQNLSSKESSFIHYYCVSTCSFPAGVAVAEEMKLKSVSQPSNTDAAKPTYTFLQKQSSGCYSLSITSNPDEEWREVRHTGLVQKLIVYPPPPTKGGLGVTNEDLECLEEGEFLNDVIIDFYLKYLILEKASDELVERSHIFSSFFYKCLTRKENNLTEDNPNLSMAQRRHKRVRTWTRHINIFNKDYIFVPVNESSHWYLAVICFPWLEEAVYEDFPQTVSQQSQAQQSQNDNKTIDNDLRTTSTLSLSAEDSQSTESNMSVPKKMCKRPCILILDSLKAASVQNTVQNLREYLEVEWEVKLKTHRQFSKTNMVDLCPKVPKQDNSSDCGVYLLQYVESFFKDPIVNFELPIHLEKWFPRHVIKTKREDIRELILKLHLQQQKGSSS

[26] = molecular target: T7, Sentrin-specific protease 6 (Homo sapiens, UniProt Q9GZR1); type: functional;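 also: Luminescence-based dose-response confirmatory assay of SENP6 inhibition, following up an ultra-high-throughput screen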
T7 sequence (Q9GZR1 whole entry): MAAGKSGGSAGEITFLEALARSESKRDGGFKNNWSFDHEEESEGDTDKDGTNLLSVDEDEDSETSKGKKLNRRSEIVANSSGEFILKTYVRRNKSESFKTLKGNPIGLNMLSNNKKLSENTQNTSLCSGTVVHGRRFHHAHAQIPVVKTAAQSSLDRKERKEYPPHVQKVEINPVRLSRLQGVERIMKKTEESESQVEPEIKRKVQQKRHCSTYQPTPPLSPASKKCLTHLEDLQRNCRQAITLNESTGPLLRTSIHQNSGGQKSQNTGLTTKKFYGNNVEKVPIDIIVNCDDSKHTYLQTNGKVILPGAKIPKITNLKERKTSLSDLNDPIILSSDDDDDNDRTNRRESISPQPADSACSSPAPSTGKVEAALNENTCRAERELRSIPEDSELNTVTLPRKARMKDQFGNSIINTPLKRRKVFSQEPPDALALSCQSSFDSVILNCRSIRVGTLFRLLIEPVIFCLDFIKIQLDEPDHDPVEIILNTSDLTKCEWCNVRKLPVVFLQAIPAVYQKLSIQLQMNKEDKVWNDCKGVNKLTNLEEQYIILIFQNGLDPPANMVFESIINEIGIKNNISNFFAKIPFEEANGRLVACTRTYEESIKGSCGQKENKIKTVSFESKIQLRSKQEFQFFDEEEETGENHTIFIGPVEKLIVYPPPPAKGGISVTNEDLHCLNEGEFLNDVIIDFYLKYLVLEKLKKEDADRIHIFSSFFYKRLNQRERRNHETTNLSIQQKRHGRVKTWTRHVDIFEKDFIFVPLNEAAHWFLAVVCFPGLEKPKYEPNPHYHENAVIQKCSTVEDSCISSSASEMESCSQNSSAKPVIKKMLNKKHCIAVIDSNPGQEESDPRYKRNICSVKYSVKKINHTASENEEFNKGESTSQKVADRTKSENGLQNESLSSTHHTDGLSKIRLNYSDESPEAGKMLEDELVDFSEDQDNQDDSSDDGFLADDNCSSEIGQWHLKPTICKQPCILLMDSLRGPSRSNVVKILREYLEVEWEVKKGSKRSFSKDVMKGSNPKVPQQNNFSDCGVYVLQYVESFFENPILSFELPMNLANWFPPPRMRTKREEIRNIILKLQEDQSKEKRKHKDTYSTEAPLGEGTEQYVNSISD

[27] = molecular target: T8, Sentrin-specific protease 8 (Homo sapiens, UniProt Q96LD8); type: functional;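 also: luminescence read-out of SENP8 inhibition, dose-response confirmation following an ultra-high-throughput screen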
T8 sequence (Q96LD8 whole entry): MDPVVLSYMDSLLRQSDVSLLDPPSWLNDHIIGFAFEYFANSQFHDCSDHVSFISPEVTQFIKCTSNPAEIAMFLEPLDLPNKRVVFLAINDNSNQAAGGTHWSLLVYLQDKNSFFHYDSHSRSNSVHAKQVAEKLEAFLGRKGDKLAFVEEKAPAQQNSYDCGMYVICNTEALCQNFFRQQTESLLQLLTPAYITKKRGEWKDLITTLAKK

[28] = tested on: INS1; test: INS-1E survival protection against cytokine death – cell-based, luminescence, retest, dose response (AID 449756); type: functional; conditions: Rattus norvegicus;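 also: cell death triggered by IL-1 beta plus TNF-alpha plus IFN-gamma mixture; protective hits raise ATP signal compared with cytokine alone wells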

T4 sequence (P41145 whole entry): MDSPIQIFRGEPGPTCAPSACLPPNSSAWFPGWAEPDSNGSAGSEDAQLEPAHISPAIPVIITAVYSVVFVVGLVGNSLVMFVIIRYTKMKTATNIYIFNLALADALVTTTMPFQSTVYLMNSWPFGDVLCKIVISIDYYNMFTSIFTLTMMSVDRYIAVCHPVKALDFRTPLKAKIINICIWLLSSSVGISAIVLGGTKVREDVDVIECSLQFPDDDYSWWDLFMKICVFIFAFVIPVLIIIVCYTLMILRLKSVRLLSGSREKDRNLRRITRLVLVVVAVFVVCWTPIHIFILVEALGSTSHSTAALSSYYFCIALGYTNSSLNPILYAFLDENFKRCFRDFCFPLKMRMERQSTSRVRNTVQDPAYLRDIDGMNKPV
T3 sequence (P41143 whole entry): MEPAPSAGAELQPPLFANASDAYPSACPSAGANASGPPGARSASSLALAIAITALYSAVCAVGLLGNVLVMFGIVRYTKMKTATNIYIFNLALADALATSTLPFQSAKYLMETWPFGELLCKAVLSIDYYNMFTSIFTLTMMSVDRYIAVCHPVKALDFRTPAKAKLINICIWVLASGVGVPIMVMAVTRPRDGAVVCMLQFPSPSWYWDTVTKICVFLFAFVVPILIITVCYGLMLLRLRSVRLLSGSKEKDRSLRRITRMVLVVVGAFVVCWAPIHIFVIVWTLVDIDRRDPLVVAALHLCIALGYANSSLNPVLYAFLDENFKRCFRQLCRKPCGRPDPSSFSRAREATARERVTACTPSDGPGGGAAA
Mu-type opioid receptor, sequence (P35372 whole entry): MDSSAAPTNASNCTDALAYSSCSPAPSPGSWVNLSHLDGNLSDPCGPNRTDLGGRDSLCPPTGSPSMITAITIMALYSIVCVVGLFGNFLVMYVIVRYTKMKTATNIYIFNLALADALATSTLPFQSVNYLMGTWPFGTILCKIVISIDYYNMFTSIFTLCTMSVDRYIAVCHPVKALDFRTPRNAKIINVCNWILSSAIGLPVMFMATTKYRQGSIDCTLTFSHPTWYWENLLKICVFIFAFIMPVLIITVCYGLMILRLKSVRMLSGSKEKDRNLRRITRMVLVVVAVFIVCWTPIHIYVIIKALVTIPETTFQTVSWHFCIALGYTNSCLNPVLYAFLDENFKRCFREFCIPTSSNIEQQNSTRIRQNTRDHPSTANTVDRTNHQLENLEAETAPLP
Peroxisome proliferator-activated receptor gamma/Nuclear receptor coactivator 2, sequence (P37231 whole entry): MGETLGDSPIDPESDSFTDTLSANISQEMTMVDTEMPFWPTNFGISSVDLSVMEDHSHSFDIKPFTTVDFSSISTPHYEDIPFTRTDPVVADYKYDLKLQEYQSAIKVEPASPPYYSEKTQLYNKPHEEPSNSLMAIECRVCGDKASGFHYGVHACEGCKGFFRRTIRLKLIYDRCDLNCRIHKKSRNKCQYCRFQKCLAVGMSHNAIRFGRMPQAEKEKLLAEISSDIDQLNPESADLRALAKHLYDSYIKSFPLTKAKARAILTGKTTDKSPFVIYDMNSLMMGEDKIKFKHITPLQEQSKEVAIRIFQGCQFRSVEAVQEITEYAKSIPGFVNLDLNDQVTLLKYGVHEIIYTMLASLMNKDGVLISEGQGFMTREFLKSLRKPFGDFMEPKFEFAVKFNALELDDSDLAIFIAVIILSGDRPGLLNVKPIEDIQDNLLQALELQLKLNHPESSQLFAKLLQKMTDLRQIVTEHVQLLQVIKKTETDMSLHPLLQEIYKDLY
Peroxisome proliferator-activated receptor gamma/Nuclear receptor coactivator 2, sequence (Q15596 whole entry, further chain): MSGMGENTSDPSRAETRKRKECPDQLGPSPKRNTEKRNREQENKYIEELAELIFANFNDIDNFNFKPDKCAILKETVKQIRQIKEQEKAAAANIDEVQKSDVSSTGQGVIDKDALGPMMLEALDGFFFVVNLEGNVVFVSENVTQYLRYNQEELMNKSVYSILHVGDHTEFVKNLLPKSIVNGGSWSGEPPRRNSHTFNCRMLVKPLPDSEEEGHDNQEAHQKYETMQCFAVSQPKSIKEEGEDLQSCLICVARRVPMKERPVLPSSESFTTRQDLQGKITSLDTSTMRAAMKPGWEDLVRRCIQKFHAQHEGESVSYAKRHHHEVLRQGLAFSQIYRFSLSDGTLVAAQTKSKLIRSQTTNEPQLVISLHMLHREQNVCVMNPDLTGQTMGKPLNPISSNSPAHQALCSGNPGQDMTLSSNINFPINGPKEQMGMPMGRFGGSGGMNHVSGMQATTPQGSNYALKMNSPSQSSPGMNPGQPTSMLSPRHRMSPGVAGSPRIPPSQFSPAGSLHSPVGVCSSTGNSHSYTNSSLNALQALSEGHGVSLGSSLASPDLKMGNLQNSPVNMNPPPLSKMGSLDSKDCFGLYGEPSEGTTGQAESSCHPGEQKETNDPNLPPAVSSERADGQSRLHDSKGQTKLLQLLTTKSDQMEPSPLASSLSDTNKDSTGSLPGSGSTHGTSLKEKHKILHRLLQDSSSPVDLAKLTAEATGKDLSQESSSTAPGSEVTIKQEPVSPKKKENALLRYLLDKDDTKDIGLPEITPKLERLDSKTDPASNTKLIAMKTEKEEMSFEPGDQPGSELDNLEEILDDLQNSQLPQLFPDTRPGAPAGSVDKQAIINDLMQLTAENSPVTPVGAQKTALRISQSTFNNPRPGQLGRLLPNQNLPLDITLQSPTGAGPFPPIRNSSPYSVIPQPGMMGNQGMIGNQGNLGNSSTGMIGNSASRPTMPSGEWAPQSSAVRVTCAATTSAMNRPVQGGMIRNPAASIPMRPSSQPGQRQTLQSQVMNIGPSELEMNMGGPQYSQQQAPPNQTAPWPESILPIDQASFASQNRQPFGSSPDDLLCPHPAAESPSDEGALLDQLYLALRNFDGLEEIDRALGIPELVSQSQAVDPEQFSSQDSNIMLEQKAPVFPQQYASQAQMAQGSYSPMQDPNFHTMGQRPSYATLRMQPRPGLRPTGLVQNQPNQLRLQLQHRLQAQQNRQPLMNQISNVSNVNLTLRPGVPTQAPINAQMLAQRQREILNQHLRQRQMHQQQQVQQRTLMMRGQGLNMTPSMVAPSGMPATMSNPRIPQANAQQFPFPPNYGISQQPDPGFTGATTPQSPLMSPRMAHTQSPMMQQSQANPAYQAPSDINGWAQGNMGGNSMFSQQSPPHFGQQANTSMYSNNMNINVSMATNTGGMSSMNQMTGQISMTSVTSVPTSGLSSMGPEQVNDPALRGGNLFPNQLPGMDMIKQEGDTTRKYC
Peroxisome proliferator-activated receptor gamma/Nuclear receptor coactivator 3, sequence (P37231 whole entry): as the sequence (P37231 whole entry) above
Peroxisome proliferator-activated receptor gamma/Nuclear receptor coactivator 3, sequence (Q9Y6Q9 whole entry, further chain): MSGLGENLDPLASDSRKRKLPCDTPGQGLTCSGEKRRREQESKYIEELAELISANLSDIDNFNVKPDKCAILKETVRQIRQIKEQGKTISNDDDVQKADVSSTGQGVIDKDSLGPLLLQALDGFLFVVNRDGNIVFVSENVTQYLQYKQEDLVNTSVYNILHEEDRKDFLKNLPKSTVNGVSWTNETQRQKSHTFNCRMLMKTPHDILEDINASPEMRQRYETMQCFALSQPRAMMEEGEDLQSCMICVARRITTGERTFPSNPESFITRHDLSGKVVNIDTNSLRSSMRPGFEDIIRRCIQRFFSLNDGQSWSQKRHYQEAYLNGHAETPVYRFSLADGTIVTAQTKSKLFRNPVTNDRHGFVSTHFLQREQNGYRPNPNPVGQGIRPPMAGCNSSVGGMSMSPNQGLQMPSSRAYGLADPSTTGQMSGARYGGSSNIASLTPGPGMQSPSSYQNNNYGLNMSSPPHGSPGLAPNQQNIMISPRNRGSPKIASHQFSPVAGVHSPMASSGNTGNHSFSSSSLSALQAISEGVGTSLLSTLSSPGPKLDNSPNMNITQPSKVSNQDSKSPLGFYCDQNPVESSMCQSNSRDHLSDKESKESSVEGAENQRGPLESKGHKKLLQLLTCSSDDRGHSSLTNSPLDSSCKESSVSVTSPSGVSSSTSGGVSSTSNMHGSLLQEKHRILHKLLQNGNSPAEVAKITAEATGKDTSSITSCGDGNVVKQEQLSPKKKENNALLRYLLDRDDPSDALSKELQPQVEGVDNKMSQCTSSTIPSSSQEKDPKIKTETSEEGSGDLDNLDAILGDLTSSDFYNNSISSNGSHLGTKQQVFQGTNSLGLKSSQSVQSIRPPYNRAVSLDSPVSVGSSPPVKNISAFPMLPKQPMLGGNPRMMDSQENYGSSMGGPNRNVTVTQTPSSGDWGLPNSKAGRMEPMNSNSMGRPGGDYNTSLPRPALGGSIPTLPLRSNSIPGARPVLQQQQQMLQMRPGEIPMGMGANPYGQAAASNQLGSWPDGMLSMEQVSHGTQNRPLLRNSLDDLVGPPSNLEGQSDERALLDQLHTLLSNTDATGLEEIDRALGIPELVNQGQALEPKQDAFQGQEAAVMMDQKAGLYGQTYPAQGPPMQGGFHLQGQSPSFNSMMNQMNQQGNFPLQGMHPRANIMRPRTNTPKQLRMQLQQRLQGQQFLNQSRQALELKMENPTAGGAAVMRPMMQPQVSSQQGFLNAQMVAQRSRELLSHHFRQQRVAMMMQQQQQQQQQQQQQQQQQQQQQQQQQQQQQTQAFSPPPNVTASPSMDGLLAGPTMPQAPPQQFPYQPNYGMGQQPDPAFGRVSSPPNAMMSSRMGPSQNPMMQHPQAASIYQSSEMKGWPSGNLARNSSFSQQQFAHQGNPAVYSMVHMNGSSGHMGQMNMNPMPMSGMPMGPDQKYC

O=C(CCSc1nnc2ccc3ccccc3n12)Nc1ccc(F)cc1
EC50 [1]: 24.3 µM (inactive)
EC50 [2]: > 79.4 µM (not active)
EC50 [3]: 20.9 µM (not active)
IC50 [4]: > 50 µM (inactive)

Nc1cc2nc3ccccc3oc-2cc1=O
EC50 [5]: 72.1 µM (active)
EC50 [6]: 64.1 µM (active)
EC50 [7]: 74.5 µM (active)

COc1cccc2sc(Nc3nc(-c4ccccn4)cs3)nc12
IC50 [8]: > 32 µM (inactive)
EC50 [9]: 84.1 µM (active)
EC50 [10]: > 32 µM (inactive)
EC50 [11]: > 32 µM (inactive)
EC50 [12]: 12.3 µM (inconclusive)
EC50 [13]: 64.5 µM (active)
EC50 [14]: 0.126 µM (active)
EC50 [15]: 2.23 µM (active)
EC50 [16]: 12.2 µM (active)
IC50 [17]: 1.4 µM (active)
EC50 [18]: 6.91 µM (active)
IC50 [19]: 1.62 µM (active)
EC50 [20]: > 31.5 µM (inactive)
EC50 [21]: 8.02 µM (inconclusive)
IC50 [22]: > 32 µM
EC50 [23]: 17.5 µM (inconclusive)
IC50 [24]: 31.7 µM (active)
IC50 [25]: 4.38 µM (active)
IC50 [26]: 6.04 µM (active)
IC50 [27]: > 100 µM (inactive)
AC50 [28]: 1.17 µM (active)
